According to the supplement of paper PMC10307832:

Key:
Assay in all cases: relative viability (nuclei count vs DMSO), 5 days (fraction); higher = more cells survive
SK-MES-1 = system: SK-MES-1
Method in brief: (§1)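 A single step with final 0.05% Triton X-100, 1% formaldehyde and 1 ug/ml Hoechst fixed the cells and stained nuclei 5 days after treatment. Lung cancer cell lines in 1536-well plates had been treated by pin tool the day after seeding with one drug alone or a fixed anchor-drug dose plus five library-drug doses (not always all listed) in √10 steps, and nuclei were counted on 4× images. Relative viability is the ratio of nuclei in treated wells to nuclei in vehicle wells, taken as the median of duplicate plates.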

H3255 = system: H3255
Method in brief: as §1

COR-L23 = system: COR-L23
Method in brief: as §1

HCC-44 = system: HCC-44
Method in brief: as §1

NCI-H1563 = system: NCI-H1563
Method in brief: as §1

NCI-H2087 = system: NCI-H2087
Method in brief: as §1

NCI-H1651 = system: NCI-H1651
Method in brief: as §1

LU99A = system: LU99A
Method in brief: as §1

EMC-BAC-2 = system: EMC-BAC-2
Method in brief: as §1

NCI-H838 = system: NCI-H838
Method in brief: as §1

NCI-H2085 = system: NCI-H2085
Method in brief: as §1

NCI-H650 = system: NCI-H650
Method in brief: as §1

HCC-827 = system: HCC-827
Method in brief: as §1

ChaGo-K-1 = system: ChaGo-K-1
Method in brief: as §1

NCI-H1944 = system: NCI-H1944
Method in brief: as §1

EPLC-272H = system: EPLC-272H
Method in brief: as §1

NCI-H2405 = system: NCI-H2405
Method in brief: as §1

NCI-H2023 = system: NCI-H2023
Method in brief: as §1

NCI-H520 = system: NCI-H520
Method in brief: as §1

NCI-H1793 = system: NCI-H1793
Method in brief: as §1

NCI-H1395 = system: NCI-H1395
Method in brief: as §1

LCLC-103H = system: LCLC-103H
Method in brief: as §1

O=c1cc(-c2cccc3c2Sc2ccccc2S3)oc(N2CCOCC2)c1 + CS(=O)(=O)N1CCN(Cc2cc3nc(-c4cccc5[nH]ncc45)nc(N4CCOCC4)c3s2)CC1 [Pictilisib] (partner 1 µM)
relative viability (SK-MES-1; first compound 0.08 µM): 0.373 | relative viability (SK-MES-1; first compound 0.253 µM): 0.396 | relative viability (SK-MES-1; first compound 0.8 µM): 0.338 | relative viability (SK-MES-1; first compound 2.53 µM): 0.407 | relative viability (SK-MES-1; first compound 8 µM): 0.474 | relative viability (H3255; first compound 0.08 µM): 0.408 | relative viability (H3255; first compound 0.253 µM): 0.463 | relative viability (H3255; first compound 0.8 µM): 0.427 | relative viability (H3255; first compound 2.53 µM): 0.402 | relative viability (H3255; first compound 8 µM): 0.513 | relative viability (COR-L23; first compound 0.08 µM): 0.92 | relative viability (COR-L23; first compound 0.253 µM): 1.36 | relative viability (COR-L23; first compound 0.8 µM): 0.934 | relative viability (COR-L23; first compound 2.53 µM): 0.705 | relative viability (COR-L23; first compound 8 µM): 1.06 | relative viability (HCC-44; first compound 0.08 µM): 0.457 | relative viability (HCC-44; first compound 0.253 µM): 0.655 | relative viability (HCC-44; first compound 0.8 µM): 0.536 | relative viability (HCC-44; first compound 2.53 µM): 0.468 | relative viability (HCC-44; first compound 8 µM): 0.577 | relative viability (NCI-H1563; first compound 0.08 µM): 0.649 | relative viability (NCI-H1563; first compound 0.253 µM): 0.64 | relative viability (NCI-H1563; first compound 0.8 µM): 0.633 | relative viability (NCI-H1563; first compound 2.53 µM): 0.738 | relative viability (NCI-H1563; first compound 8 µM): 0.661 | relative viability (NCI-H2087; first compound 0.08 µM): 0.954 | relative viability (NCI-H2087; first compound 0.253 µM): 1.15 | relative viability (NCI-H2087; first compound 0.8 µM): 0.931 | relative viability (NCI-H2087; first compound 2.53 µM): 0.87 | relative viability (NCI-H2087; first compound 8 µM): 0.973 | relative viability (NCI-H1651; first compound 0.08 µM): 0.512 | relative viability (NCI-H1651; first compound 0.253 µM): 0.857 | relative viability (NCI-H1651; first compound 0.8 µM): 0.546 | relative viability (NCI-H1651; first compound 2.53 µM): 0.59 | relative viability (NCI-H1651; first compound 8 µM): 0.509 | relative viability (LU99A; first compound 0.08 µM): 0.294 | relative viability (LU99A; first compound 0.253 µM): 0.341 | relative viability (LU99A; first compound 0.8 µM): 0.378 | relative viability (LU99A; first compound 2.53 µM): 0.332 | relative viability (LU99A; first compound 8 µM): 0.418 | relative viability (EMC-BAC-2; first compound 0.08 µM): 0.535 | relative viability (EMC-BAC-2; first compound 0.253 µM): 0.582 | relative viability (EMC-BAC-2; first compound 0.8 µM): 0.58 | relative viability (EMC-BAC-2; first compound 2.53 µM): 0.548 | relative viability (EMC-BAC-2; first compound 8 µM): 0.538 | relative viability (NCI-H838; first compound 0.08 µM): 0.415 | relative viability (NCI-H838; first compound 0.253 µM): 0.643 | relative viability (NCI-H838; first compound 0.8 µM): 0.372 | relative viability (NCI-H838; first compound 2.53 µM): 0.426 | relative viability (NCI-H838; first compound 8 µM): 0.408 | relative viability (NCI-H2085; first compound 0.08 µM): 0.44 | relative viability (NCI-H2085; first compound 0.253 µM): 0.586 | relative viability (NCI-H2085; first compound 0.8 µM): 0.476 | relative viability (NCI-H2085; first compound 2.53 µM): 0.464 | relative viability (NCI-H2085; first compound 8 µM): 0.494 | relative viability (NCI-H650; first compound 0.08 µM): 0.807 | relative viability (NCI-H650; first compound 0.253 µM): 0.873 | relative viability (NCI-H650; first compound 0.8 µM): 0.741 | relative viability (NCI-H650; first compound 2.53 µM): 0.806 | relative viability (NCI-H650; first compound 8 µM): 0.767 | relative viability (HCC-827; first compound 0.08 µM): 0.945 | relative viability (HCC-827; first compound 0.253 µM): 1.13 | relative viability (HCC-827; first compound 0.8 µM): 1.12 | relative viability (HCC-827; first compound 2.53 µM): 0.743 | relative viability (HCC-827; first compound 8 µM): 1.1 | relative viability (ChaGo-K-1; first compound 0.08 µM): 0.649 | relative viability (ChaGo-K-1; first compound 0.253 µM): 0.624 | relative viability (ChaGo-K-1; first compound 0.8 µM): 0.777 | relative viability (ChaGo-K-1; first compound 8 µM): 1.12 | relative viability (NCI-H1944; first compound 0.08 µM): 0.324 | relative viability (NCI-H1944; first compound 0.253 µM): 0.352 | relative viability (NCI-H1944; first compound 0.8 µM): 0.29 | relative viability (NCI-H1944; first compound 8 µM): 0.346 | relative viability (EPLC-272H; first compound 0.08 µM): 0.321 | relative viability (EPLC-272H; first compound 0.253 µM): 0.334 | relative viability (EPLC-272H; first compound 0.8 µM): 0.29 | relative viability (EPLC-272H; first compound 2.53 µM): 0.289 | relative viability (EPLC-272H; first compound 8 µM): 0.327 | relative viability (NCI-H2405; first compound 0.08 µM): 0.454 | relative viability (NCI-H2405; first compound 0.253 µM): 0.386 | relative viability (NCI-H2405; first compound 0.8 µM): 0.333 | relative viability (NCI-H2405; first compound 2.53 µM): 0.491 | relative viability (NCI-H2405; first compound 8 µM): 0.492 | relative viability (NCI-H2023; first compound 0.08 µM): 0.213 | relative viability (NCI-H2023; first compound 0.253 µM): 0.294 | relative viability (NCI-H2023; first compound 0.8 µM): 0.244 | relative viability (NCI-H2023; first compound 2.53 µM): 0.218 | relative viability (NCI-H2023; first compound 8 µM): 0.218 | relative viability (NCI-H520; first compound 0.08 µM): 0.308 | relative viability (NCI-H520; first compound 0.253 µM): 0.354 | relative viability (NCI-H520; first compound 0.8 µM): 0.306 | relative viability (NCI-H520; first compound 2.53 µM): 0.273 | relative viability (NCI-H520; first compound 8 µM): 0.374 | relative viability (NCI-H1793; first compound 0.08 µM): 0.185 | relative viability (NCI-H1793; first compound 0.253 µM): 0.301 | relative viability (NCI-H1793; first compound 0.8 µM): 0.303 | relative viability (NCI-H1793; first compound 2.53 µM): 0.303 | relative viability (NCI-H1793; first compound 8 µM): 0.334 | relative viability (NCI-H1395; first compound 0.08 µM): 0.634 | relative viability (NCI-H1395; first compound 0.253 µM): 0.602 | relative viability (NCI-H1395; first compound 0.8 µM): 0.534 | relative viability (NCI-H1395; first compound 2.53 µM): 0.579 | relative viability (NCI-H1395; first compound 8 µM): 1.05 | relative viability (LCLC-103H; first compound 0.08 µM): 0.63 | relative viability (LCLC-103H; first compound 0.253 µM): 0.531 | relative viability (LCLC-103H; first compound 0.8 µM): 0.505 | relative viability (LCLC-103H; first compound 2.53 µM): 0.489 | relative viability (LCLC-103H; first compound 8 µM): 0.616
